According to PMC11689655, “High-throughput screening of dual-target inhibitors for SARS-CoV-2 main protease and papain-like protease from Chebulae Fructus: in silico prediction and experimental verification” (Frontiers in Microbiology, 2024):
Like-named read-outs stand apart in the source and are kept apart here.

Experiments:
[1] = Cytotoxicity by CCK8 assay; settings: African green monkey
[2] = test system: SARS-CoV-2 wild-type; test: Antiviral activity (CPE inhibition) in Vero E6 cells, wild-type; assay type: cell-based; settings: read-out: EC50 against SARS-CoV-2 wild-type strain
[3] = molecular target: T1, SARS-CoV-2 PL^pro (Severe acute respiratory syndrome coronavirus 2, UniProt P0DTD1); test: FRET enzymatic inhibition assay, PL^pro; assay type: biochemical
[4] = molecular target: T2, SARS-CoV-2 M^pro (Severe acute respiratory syndrome coronavirus 2, UniProt P0DTD1); test: biochemical; assay type: binding; settings: SPR, Biacore T200, CM5 chip, kinetics analysis
[5] = molecular target: T2, SARS-CoV-2 M^pro; test: biochemical; settings: FRET
[6] = in vitro; settings: African green monkey
[7] = molecular target: T1, SARS-CoV-2 PL^pro; test: SPR assay, PL^pro; assay type: binding; settings: Biacore T200, CM5 chip, kinetics analysis
[8] = Severe acute respiratory syndrome coronavirus 2, Vero C1008, MOI = 0.01, 48 h

| Structure (SMILES) | CC50 [1] | EC50 [2, 8] | EC50 ([2]; MOI = 0.01, 48 h) | IC50 ([3]; 1.0 μM PL^pro, 10 μM substrate, mean ± SD, n = 3, read-out: IC50 against PL^pro) | inhibition at 40 µM ([3]; compound 40 μM, read-out: inhibition effect on PL^pro) | Kd [4] | IC50 ([5]; 0.2 μM M^pro, 20 μM substrate, mean ± SD, n = 3, read-out: IC50 against M^pro) | inhibition at 40 µM ([5]; compound 40 μM, read-out: inhibition effect on M^pro) | CC50 [6] | Kd [7] |
| --- | --- | --- | --- | --- | --- | --- | --- | --- | --- | --- |
| O=C(OC[C@H]1O[C@@H](OC(=O)c2cc(O)c(O)c(O)c2)[C@H](OC(=O)c2cc(O)c(O)c(O)c2)[C@@H](OC(=O)c2cc(O)c(O)c(O)c2)[C@@H]1OC(=O)c1cc(O)c(O)c(O)c1)c1cc(O)c(O)c(O)c1 [PGG, 1,2,3,4,6-penta-O-galloyl-β-D-glucose] | > 100 µM | 8.22 µM | – | – | – | – | – | – | – | – |
| Cn1cnc(Cn2c(=O)[nH]/c(=N\c3cc4cn(C)nc4cc3Cl)n(Cc3cc(F)c(F)cc3F)c2=O)n1 [S-217622, reference compound] | – | – | 0.05 µM | – | – | – | – | – | – | – |
| O=C(OC[C@H]1O[C@@H](OC(=O)c2cc(O)c(O)c(O)c2)[C@H](OC(=O)c2cc(O)c(O)c(O)c2)[C@@H](OC(=O)c2cc(O)c(O)c(O)c2)[C@@H]1O)c1cc(O)c(O)c(O)c1 [TGG, 1,2,3,6-tetra-O-galloyl-β-D-glucose] | – | 13 µM | – | 27.4 ± 2.43 µM | > 60% | 0.768 µM | 1.33 ± 0.47 µM | > 60% | > 100 µM | 0.776 µM |
